# According to patent publication US20110183336A1, “Method to Predict Responsiveness of Breast Cancer to Polyamine-Type Chemotherapy” (THE REGENTS OF THE UNIVERSITY OF CALIFORNIA, priority 2007, published 2011):
# Key:
# Assay in all cases: Cell growth inhibition assay (Cell Titer Glo)
# Format in all cases: cell-based, human
# SKBR3 = conditions: SKBR3, Luminal, 72 h
# Procedure: (§1) Cell culture: Breast cell lines were obtained from the ATCC and from collections developed in the laboratories of Drs. Steve Ethier and Adi Gazdar.
# (§2) Cell growth inhibition assay and data analysis: Cells were plated at proper density in 96-well plates such that they would remain in log growth at the end of assay time. The cells were allowed to attach overnight before being exposed to CGC-11047 for 72 h. Drugs were dissolved in water as 100 mM stock. For the dose response study, a set of 9 doses from 5×10^−3 to 1.3×10^−8 M (final concentration) in 1:5 serial dilution were added in triplicate wells. The final DMSO concentration in the treated well was 0.3% or less. The cell growth was determined using Cell Titer Glo (CTG) assay (CellTiter-Glo Luminescent Cell Viability Assay, Promega, Madison, Wis.), with slight modification form manufacturer's protocol, at day 0 (time when drug was added) and at day 3 of drug exposure. Briefly, CTG reagent was diluted with PBS (1:1, volume: volume) and the culture media was removed from the 96-well plate prior to adding 50 μl per well of the diluted CTG reagent. Luminescence from the assay was recorded using BIO-TEK FLx800.
# (§3) Data calculations were made according to the method described by the NCI/NIH DTP Human Tumor Cell Line Screen Process (http://dtp.nci.nih.gov/branches/btb/ivclsp.html) and as described previously (Monks, A et al., JNCI 83:757-766, 1991). The percent growth curve is calculated as [(T−T0)/(C−T0)]×100, where T0 is the cell count at day 0, C is the vehicle control (e.g. 0.3% DMSO without drug) cell count at day 3, and T is the cell count at the test concentration. The GI50 and TGI value are determined as the drug concentration that results in a 50% and 0% growth at 72 h drug exposure. LC50 is calculated as [(T−T0)/T0]×100=−50, when T<T0.
# HCC1937 = conditions: HCC1937, Basal A, 72 h
# Procedure: as §1, §2, §3
# T4 = conditions: T4, Basal B, 72 h
# Procedure: as §1, §2, §3
# HCC70 = conditions: HCC70, Basal A, 72 h
# Procedure: as §1, §2, §3
# MCF10F = conditions: N, Basal A, 72 h
# Procedure: as §1, §2, §3
# T47D = conditions: Luminal, 72 h
# Procedure: as §1, §2, §3
# MDAMB175VII = conditions: Luminal, 72 h
# Procedure: as §1, §2, §3
# CAMA1 = conditions: CAMA1, Luminal, 72 h
# Procedure: as §1, §2, §3
# UACC812 = conditions: UACC812, Luminal, 72 h
# Procedure: as §1, §2, §3
# BT549 = conditions: BT549, Basal B, 72 h
# Procedure: as §1, §2, §3
# BT474 = conditions: BT474, Luminal, 72 h
# Procedure: as §1, §2, §3
# SUM185PE = conditions: Luminal, 72 h
# Procedure: as §1, §2, §3
# ZR75B = conditions: Luminal, 72 h
# Procedure: as §1, §2, §3
# MDAMB415 = conditions: MDAMB415, Luminal, 72 h
# Procedure: as §1, §2, §3
# HCC1428 = conditions: HCC1428, Luminal, 72 h
# Procedure: as §1, §2, §3
# HCC38 = conditions: HCC38, Basal B, 72 h
# Procedure: as §1, §2, §3
# ZR751 = conditions: ZR751, Luminal, 72 h
# Procedure: as §1, §2, §3
# HCC1569 = conditions: HCC1569, Basal A, 72 h
# Procedure: as §1, §2, §3
# MDAMB361 = conditions: MDAMB361, Luminal, 72 h
# Procedure: as §1, §2, §3
# LY2 = conditions: LY2, Luminal, 72 h
# Procedure: as §1, §2, §3
# HCC3153 = conditions: HCC3153, Basal A, 72 h
# Procedure: as §1, §2, §3
# Hs578T = conditions: Basal B, 72 h
# Procedure: as §1, §2, §3
# SUM149PT = conditions: Basal B, 72 h
# Procedure: as §1, §2, §3
# SUM1315MO2 = conditions: SUM1315MO2, Basal B, 72 h
# Procedure: as §1, §2, §3
smiles,measurement,setting,value
CCNCCCNC/C=C\CNCCCNCC [CGC-11047],GI50,"SKBR3; Homo sapiens, SK-BR-3",5000 µM
same,TGI,SKBR3,>5000 µM
same,TGI,HCC1937,300 µM
same,GI50,HCC1937; Homo sapiens,0.8 µM
same,GI50,T4; Homo sapiens,2 µM
same,TGI,T4,800 µM
same,TGI,HCC70,0.53 µM
same,GI50,HCC70; Homo sapiens,0.4 µM
same,GI50,"MCF10F; Homo sapiens, MCF-10F",100 µM
same,TGI,MCF10F,1100 µM
same,GI50,T47D; Homo sapiens,0.4 µM
same,TGI,T47D,200 µM
same,GI50,"MDAMB175VII; Homo sapiens, MDA-MB-175-VII",1000 µM
same,TGI,MDAMB175VII,2000 µM
same,TGI,CAMA1,1100 µM
same,GI50,"CAMA1; Homo sapiens, CAMA-1",350 µM
same,GI50,"UACC812; Homo sapiens, UACC-812",21 µM
same,TGI,UACC812,300 µM
same,TGI,BT549,1300 µM
same,GI50,"BT549; Homo sapiens, BT-549",1 µM
same,TGI,BT474,1000 µM
same,GI50,"BT474; Homo sapiens, BT-474",400 µM
same,GI50,SUM185PE; Homo sapiens,300 µM
same,TGI,SUM185PE,>500 µM
same,GI50,"ZR75B; Homo sapiens, ZR-75B",200 µM
same,TGI,ZR75B,2000 µM
same,GI50,"MDAMB415; Homo sapiens, MDA-MB-415",20 µM
same,TGI,MDAMB415,100 µM
same,TGI,HCC1428,300 µM
same,GI50,HCC1428; Homo sapiens,1 µM
same,TGI,HCC38,300 µM
same,GI50,HCC38; Homo sapiens,40 µM
same,GI50,"ZR751; Homo sapiens, ZR-75-1",13 µM
same,TGI,ZR751,800 µM
same,TGI,HCC1569,2000 µM
same,GI50,HCC1569; Homo sapiens,220 µM
same,GI50,"MDAMB361; Homo sapiens, MDA-MB-361",600 µM
same,TGI,MDAMB361,2000 µM
same,GI50,LY2; Homo sapiens,1300 µM
same,TGI,LY2,3000 µM
same,TGI,HCC3153,8 µM
same,GI50,HCC3153; Homo sapiens,1.3 µM
same,TGI,Hs578T,500 µM
same,GI50,"Hs578T; Homo sapiens, Hs-578T",0.4 µM
same,TGI,SUM149PT,800 µM
same,GI50,SUM149PT; Homo sapiens,2 µM
same,GI50,SUM1315MO2; Homo sapiens,700 µM
same,TGI,SUM1315MO2,1300 µM
